This passage reports IC50 results from patent US8846699B2, “Quinazoline derivatives as a multiplex inhibitor and method for the preparation thereof” (Hanmi Pharm. Co., Ltd., priority 2005, dated 2014).

One assay deals with VEGFR2 (KDR) (Homo sapiens (Human), UniProt P35968). In words: VEGFR2 (KDR) enzyme assay, fluorescence polarization. The settings on record: 5 μM ATP, poly(Glu, Tyr) substrate. It is filed as biochemical. The protocol:
VEGFR2 (KDR, Proquinase) enzyme assay (auto-phosphorylation assay) was carried out by using Tyrosine Kinase Assay Kit Green (Panvera). The entire assay was conducted in accordance with VEGFR PTK inhibitor cellular activity test S.O.P.
A typical kinase inhibition reaction requires a protein tyrosine kinase, a suitable buffer solution system, a peptide substrate and ATP. In the present VEGFR tyrosine kinase assay, a buffer solution system containing 20 mM HEPES (pH 7.4), 5 mM MgCl2 and 2 mM MnCl2; 50 μM Na3VO4; 200 ng/10 μl VEGFR (Proquinase); 5 μM ATP; and 10 ng/ml poly(Glu, Tyr) (4:1, Sigma) as a substrate were used.
The compounds of Test Example 1 were used as control compounds at a concentration of 0.0001 to 10 μM. After 10 min, 10 μl of poly(Glu, Tyr) as a substrate was added to each well, and 10 μl of ATP was added thereto to initiate kinase reaction. The plate was incubated at room temperature for 1 hour, and 10 μl of 100 mM EDTA was added to each well to terminate the kinase reaction.
The added EDTA was mixed for 5 min. Thereafter, 10 μl of 10× anti-phosphotyrosine antibody (Panvera), 10 μl of 10×PTK Green Tracer (Panvera) and 30 μl of FP dilution buffer (Panvera) were added thereto, and the plate was incubated in a dark room at room temperature for 30 min.
(Polarisation of emitted light reports the rotation of a fluorescent probe.)

The test system of assay [1] is colon and rectal cancer cell line, SW-620. In words: Inhibitory effect on growth of cancer cell line SW-620, SRB. It counts as cell-based. The settings on record: not having overexpressed EGFR and EGFR2. Summed up:
(§1)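 Cells were cultured in DMEM with 10% FBS. Compounds were applied at 10 μM with 10-fold serial dilution to 10^−4, DMSO <1%, for 72 h at 37 °C. Cells were then TCA-fixed and stained with 0.4% SRB, and absorbance was read at 570 nm after solubilisation in 10 mM Tris base.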

Assay [2] deals with breast cancer cell line, SK-Br3. In words: Inhibitory effect on growth of cancer cell line SK-Br3, SRB. It counts as cell-based. The settings on record: overexpressed EGFR2 (HER-2). Summed up: as §1
In assay [3] the test system is Human Umbilical Vein Endothelial Cell (HUVEC). In words: Inhibitory effect on growth of human umbilical vein endothelial cell (HUVEC), MTS. It counts as cell-based. The settings on record: 10 ng/ml VEGF, absorbance 490 nm.
The target in a further assay is EGFR1 (HER-1) (Homo sapiens (Human), UniProt P00533). In words: EGFR1 (HER-1) enzyme assay, fluorescence polarization. It is filed as biochemical. The settings on record: 100 μM ATP, poly(Glu, Tyr) substrate.
EGFR1 (HER-1), sequence (P00533 25-1210): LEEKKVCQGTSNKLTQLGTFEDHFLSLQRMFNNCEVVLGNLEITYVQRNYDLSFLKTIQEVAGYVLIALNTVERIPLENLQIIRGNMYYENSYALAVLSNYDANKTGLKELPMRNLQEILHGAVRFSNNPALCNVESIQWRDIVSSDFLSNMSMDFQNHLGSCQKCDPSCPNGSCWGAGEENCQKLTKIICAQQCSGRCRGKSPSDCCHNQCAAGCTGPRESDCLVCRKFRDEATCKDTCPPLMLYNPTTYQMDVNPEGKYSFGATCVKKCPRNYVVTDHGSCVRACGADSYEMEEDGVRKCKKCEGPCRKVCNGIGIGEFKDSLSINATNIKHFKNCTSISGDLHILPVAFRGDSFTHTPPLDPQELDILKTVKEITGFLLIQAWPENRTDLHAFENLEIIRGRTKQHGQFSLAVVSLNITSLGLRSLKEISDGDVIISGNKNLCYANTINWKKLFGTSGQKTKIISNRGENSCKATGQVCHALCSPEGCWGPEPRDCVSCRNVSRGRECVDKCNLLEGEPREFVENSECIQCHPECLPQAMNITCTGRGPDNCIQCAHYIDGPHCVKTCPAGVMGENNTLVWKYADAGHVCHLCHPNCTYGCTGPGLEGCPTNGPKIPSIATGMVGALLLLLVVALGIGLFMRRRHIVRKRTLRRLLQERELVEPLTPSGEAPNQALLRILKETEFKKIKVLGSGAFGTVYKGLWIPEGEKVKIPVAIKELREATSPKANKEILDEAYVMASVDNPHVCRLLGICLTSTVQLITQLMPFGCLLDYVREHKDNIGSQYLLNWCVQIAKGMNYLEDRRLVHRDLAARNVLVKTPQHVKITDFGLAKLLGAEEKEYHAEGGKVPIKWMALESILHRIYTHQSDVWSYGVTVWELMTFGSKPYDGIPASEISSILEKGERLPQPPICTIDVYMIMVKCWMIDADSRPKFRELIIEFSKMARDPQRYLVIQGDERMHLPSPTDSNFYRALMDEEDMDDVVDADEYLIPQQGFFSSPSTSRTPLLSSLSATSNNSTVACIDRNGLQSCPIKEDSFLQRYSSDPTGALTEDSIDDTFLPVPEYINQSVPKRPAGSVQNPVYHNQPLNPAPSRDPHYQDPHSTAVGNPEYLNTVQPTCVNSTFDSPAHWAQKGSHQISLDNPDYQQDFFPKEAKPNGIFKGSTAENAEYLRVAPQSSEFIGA
Assay [4] concerns skin cancer cell line, A431. In words: Inhibitory effect on growth of cancer cell line A431, SRB. It is filed as cell-based. The settings on record: overexpressed EGFR1 (HER-1). A digest of the protocol:
as §1

VEGFR2 (KDR), sequence (P35968 20-1356): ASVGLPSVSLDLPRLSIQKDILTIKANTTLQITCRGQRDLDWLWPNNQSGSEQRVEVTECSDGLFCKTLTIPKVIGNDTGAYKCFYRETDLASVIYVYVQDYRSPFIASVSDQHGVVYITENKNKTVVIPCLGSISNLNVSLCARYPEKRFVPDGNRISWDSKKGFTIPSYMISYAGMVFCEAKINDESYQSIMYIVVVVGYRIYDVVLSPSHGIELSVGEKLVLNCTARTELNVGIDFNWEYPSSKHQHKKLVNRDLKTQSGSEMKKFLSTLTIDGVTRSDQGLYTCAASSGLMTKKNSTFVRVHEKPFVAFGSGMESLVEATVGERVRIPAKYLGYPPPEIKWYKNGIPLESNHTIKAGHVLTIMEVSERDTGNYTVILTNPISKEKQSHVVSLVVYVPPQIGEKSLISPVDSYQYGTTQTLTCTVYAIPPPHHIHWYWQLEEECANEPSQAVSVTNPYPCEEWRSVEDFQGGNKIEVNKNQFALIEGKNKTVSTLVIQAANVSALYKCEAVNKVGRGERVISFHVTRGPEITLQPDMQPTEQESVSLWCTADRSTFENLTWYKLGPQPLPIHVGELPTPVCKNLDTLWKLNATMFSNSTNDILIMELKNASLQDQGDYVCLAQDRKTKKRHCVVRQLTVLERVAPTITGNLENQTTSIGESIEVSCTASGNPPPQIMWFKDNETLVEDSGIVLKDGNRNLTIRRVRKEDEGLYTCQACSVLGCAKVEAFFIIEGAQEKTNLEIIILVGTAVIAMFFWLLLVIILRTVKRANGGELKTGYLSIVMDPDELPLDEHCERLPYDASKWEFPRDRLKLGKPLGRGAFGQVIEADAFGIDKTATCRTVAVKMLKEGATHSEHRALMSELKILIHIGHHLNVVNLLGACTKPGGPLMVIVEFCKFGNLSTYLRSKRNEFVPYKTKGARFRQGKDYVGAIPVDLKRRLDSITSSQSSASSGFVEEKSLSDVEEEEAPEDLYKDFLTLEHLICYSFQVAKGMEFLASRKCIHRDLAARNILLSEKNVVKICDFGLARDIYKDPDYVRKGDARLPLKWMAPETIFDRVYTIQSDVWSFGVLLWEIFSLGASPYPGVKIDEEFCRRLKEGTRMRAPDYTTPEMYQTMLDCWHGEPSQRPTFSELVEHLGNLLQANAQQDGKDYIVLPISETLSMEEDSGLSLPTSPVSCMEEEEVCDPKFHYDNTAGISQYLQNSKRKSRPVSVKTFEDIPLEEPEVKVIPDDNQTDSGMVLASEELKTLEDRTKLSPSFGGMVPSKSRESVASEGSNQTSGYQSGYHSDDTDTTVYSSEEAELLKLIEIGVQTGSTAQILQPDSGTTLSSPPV

A word on the IC50: it is the concentration that gives 50% inhibition. A low value points to greater potency in that assay. For `C=CC(=O)Nc1cc2c(Nc3c(F)cc(Br)cc3F)ncnc2cc1OCCNC(=O)CN(C)C` [Example 123, N-[4-(4-bromo-2,6-difluorophenylamino)-7-{2-[2-(dimethylamino)-acetamido]-ethoxy}-quinazolin-6-yl]-acrylamide], the half-maximal inhibitory concentration (IC50) worked out at 268 nM at VEGFR2 (KDR); 10000 nM in assay [1] (Homo sapiens, 72 h); 126 nM in assay [2] (Homo sapiens, SK-BR-3, 72 h); 328 nM in assay [3] (Homo sapiens, 96 h); 175 nM against EGFR1 (HER-1); 181 nM in assay [4] (Homo sapiens, A-431, 72 h).
For the compound `C=CCNC(=O)NCCOc1cc2ncnc(Nc3ccc(Br)cc3F)c2cc1NC(=O)C=C` [Example 40, N-[7-[2-(3-allyl-ureido)-ethoxy]-4-(4-bromo-2-fluoro-phenylamino)-quinazolin-6-yl]-acrylamide], the 50% inhibitory concentration (IC50) at VEGFR2 (KDR) was found to be 155 nM; in assay [1] (Homo sapiens, 72 h), 10000 nM; in assay [2] (Homo sapiens, SK-BR-3, 72 h), 166 nM; in assay [3] (Homo sapiens, 96 h), 268 nM; against EGFR1 (HER-1) it was 19 nM; in assay [4] (Homo sapiens, A-431, 72 h) it was 13 nM.
As to `C=CC(=O)Nc1cc2c(Nc3ccc(Br)cc3F)ncnc2cc1OCCNC(=O)CO` [Example 45, N-{4-(4-bromo-2-fluoro-phenylamino)-7-[2-(2-hydroxy-acetylamino)-ethoxy]-quinazolin-6-yl}-acrylamide], the IC50 is 325 nM at VEGFR2 (KDR); 10000 nM in assay [1] (Homo sapiens, 72 h); 234 nM in assay [2] (Homo sapiens, SK-BR-3, 72 h); 350 nM in assay [3] (Homo sapiens, 96 h); 32 nM on EGFR1 (HER-1); 37 nM in assay [4] (Homo sapiens, A-431, 72 h).
For `C=CC(=O)Nc1cc2c(Nc3cc(Cl)c(Cl)cc3F)ncnc2cc1OCCNC(=O)CC` [Example 137, N-[4-(4,5-dichloro-2-fluoro-phenylamino)-7-(2-propionylamino-ethoxy)-quinazolin-6-yl]-acrylamide], the IC50 on VEGFR2 (KDR) was found to be 954 nM; in assay [1] (Homo sapiens, 72 h), 9580 nM; in assay [2] (Homo sapiens, SK-BR-3, 72 h), 40 nM; in assay [3] (Homo sapiens, 96 h), 951 nM; against EGFR1 (HER-1), 4 nM; in assay [4] (Homo sapiens, A-431, 72 h), 5 nM.
In the case of `C=CC(=O)Nc1cc2c(Nc3ccc(Br)c(Cl)c3F)ncnc2cc1OCCNC(=O)CC` [Example 142, N-[4-(4-bromo-3-chloro-2-fluoro-phenylamino)-7-(2-propionylamino-ethoxy)-quinazolin-6-yl]-acrylamide], the IC50 was found to be 106 nM against VEGFR2 (KDR); 10000 nM in assay [1] (Homo sapiens, 72 h); 45 nM in assay [2] (Homo sapiens, SK-BR-3, 72 h); 132 nM in assay [3] (Homo sapiens, 96 h); 14 nM against EGFR1 (HER-1); 15 nM in assay [4] (Homo sapiens, A-431, 72 h).
With `C=CC(=O)Nc1cc2c(Nc3cc(Cl)c(Cl)cc3Cl)ncnc2cc1OCCNC(C)=O` [Example 122, N-[7-(2-acetylamino-ethoxy)-4-(2,4,5-trichloro-phenylamino)-quinazolin-6-yl]-acrylamide], the half-maximal inhibitory concentration (IC50) came to 789 nM on VEGFR2 (KDR); 2320 nM in assay [1] (Homo sapiens, 72 h); 1020 nM in assay [2] (Homo sapiens, SK-BR-3, 72 h); 913 nM in assay [3] (Homo sapiens, 96 h); 876 nM at EGFR1 (HER-1); 1030 nM in assay [4] (Homo sapiens, A-431, 72 h).
Turning to `C=CC(=O)Nc1cc2c(Nc3ccc(Br)cc3F)ncnc2cc1OCCNC(=O)C(COC)N(C)C` (stereo not drawn) [Example 161, N-{4-(4-bromo-2-fluoro-phenylamino)-7-[2-(2-dimethylamino-3-methoxy-propionylamino)-ethoxy]-quinazolin-6-yl}-acrylamide], the IC50 is 1120 nM against VEGFR2 (KDR); 10000 nM in assay [1] (Homo sapiens, 72 h); 118 nM in assay [2] (Homo sapiens, SK-BR-3, 72 h); 1230 nM in assay [3] (Homo sapiens, 96 h); 57 nM on EGFR1 (HER-1); 95 nM in assay [4] (Homo sapiens, A-431, 72 h).
`C=CC(=O)Nc1cc2c(Nc3ccc(Br)c(Cl)c3F)ncnc2cc1OCCNC(=O)OC` [Example 165, {2-[6-acryloylamino-4-(4-bromo-3-chloro-2-fluoro-phenylamino)-quinazolin-7-yloxy]-ethyl}-carbamic acid methylester]: the IC50 at VEGFR2 (KDR) was determined as 79 nM; in assay [1] (Homo sapiens, 72 h), 9760 nM; in assay [2] (Homo sapiens, SK-BR-3, 72 h), 198 nM; in assay [3] (Homo sapiens, 96 h) it was 189 nM; at EGFR1 (HER-1), 98 nM; in assay [4] (Homo sapiens, A-431, 72 h), 137 nM.
Turning to `C=CC(=O)Nc1cc2c(Nc3ccc(Br)cc3F)ncnc2cc1OCC(C)NC(=O)CN(C)C` (stereo not drawn) [Example 153], the half-inhibitory concentration (IC50) on VEGFR2 (KDR) is 433 nM; in assay [1] (72 hours) it was 9570 nM; in assay [2] (72 hours), 207 nM; in assay [3] (96 hours) it was 521 nM; against EGFR1 (HER-1) it was 172 nM; in assay [4] (72 hours), 160 nM.
Regarding `C=CC(=O)Nc1cc2c(Nc3ccc(Br)cc3F)ncnc2cc1OCCNC(=S)NCC` [Example 36, N-{4-(4-bromo-2-fluoro-phenylamino)-7-[2-(3-ethyl-thioureido)-ethoxy]-quinazolin-6-yl}-acrylamide], the IC50 was determined as 354 nM against VEGFR2 (KDR); 722 nM in assay [1] (Homo sapiens, 72 h); 43 nM in assay [2] (Homo sapiens, SK-BR-3, 72 h); 389 nM in assay [3] (Homo sapiens, 96 h); 91 nM against EGFR1 (HER-1); 89 nM in assay [4] (Homo sapiens, A-431, 72 h).
In the case of `C=CC(=O)Nc1cc2c(Nc3ccc(Br)cc3F)ncnc2cc1OC[C@@H](C)NC(C)=O` [Example 82, (R)—N-[7-(2-acetylamino-propoxy)-4-(4-bromo-2-fluoro-phenylamino)-quinazolin-6-yl]-acrylamide], the 50% inhibitory concentration (IC50) against VEGFR2 (KDR) turned out to be 158 nM; in assay [1] (Homo sapiens, 72 h), 10000 nM; in assay [2] (Homo sapiens, SK-BR-3, 72 h), 60 nM; in assay [3] (Homo sapiens, 96 h) it was 205 nM; against EGFR1 (HER-1), 29 nM; in assay [4] (Homo sapiens, A-431, 72 h), 35 nM.
On to `C=CC(=O)Nc1cc2c(Nc3ccc(Br)cc3F)ncnc2cc1OCCNC(=O)CC` [Example 27, N-[4-(4-bromo-2-fluoro-phenylamino)-7-(2-propionylamino-ethoxy)-quinazolin-6-yl]-acrylamide], for which the IC50 turned out to be 250 nM against VEGFR2 (KDR); 9560 nM in assay [1] (Homo sapiens, 72 h); 50 nM in assay [2] (Homo sapiens, SK-BR-3, 72 h); 96 nM in assay [3] (Homo sapiens, 96 h); 3 nM on EGFR1 (HER-1); 30 nM in assay [4] (Homo sapiens, A-431, 72 h).
For the compound `C=CC(=O)Nc1cc2c(Nc3ccc(Br)c(F)c3F)ncnc2cc1OCCNC(=O)CCN1CCCCC1` [Example 126, N-{4-(4-bromo-2,3-difluoro-phenylamino)-7-[2-(3-piperidin-1-yl-propionylamino)-ethoxy]-quinazolin-6-yl}-acrylamide], the IC50 against VEGFR2 (KDR) is 140 nM; in assay [1] (Homo sapiens, 72 h), 7530 nM; in assay [2] (Homo sapiens, SK-BR-3, 72 h) it was 1370 nM; in assay [3] (Homo sapiens, 96 h), 286 nM; against EGFR1 (HER-1), 894 nM; in assay [4] (Homo sapiens, A-431, 72 h), 1250 nM.
Consider `C=CC(=O)Nc1cc2c(Nc3ccc(Br)cc3F)ncnc2cc1OCCNC(=O)C(C)C` [Example 48, N-[4-(4-bromo-2-fluoro-phenylamino)-7-(2-isobutyrylamino-ethoxy)-quinazolin-6-yl]-acrylamide], for which the IC50 was 698 nM at VEGFR2 (KDR); 10000 nM in assay [1] (Homo sapiens, 72 h); 70 nM in assay [2] (Homo sapiens, SK-BR-3, 72 h); 697 nM in assay [3] (Homo sapiens, 96 h); 128 nM at EGFR1 (HER-1); 114 nM in assay [4] (Homo sapiens, A-431, 72 h).
`C=CC(=O)Nc1cc2c(Nc3ccc(Br)cc3F)ncnc2cc1OCCNC(=O)C=CC` [Example 50, but-2-enoic acid {2-[6-acryloylamino-4-(4-bromo-2-fluoro-phenylamino)-quinazolin-7-yloxy]-ethyl}-amide]: the half-inhibitory concentration (IC50) on VEGFR2 (KDR) was found to be 66 nM; in assay [1] (Homo sapiens, 72 h), 9570 nM; in assay [2] (Homo sapiens, SK-BR-3, 72 h), 71 nM; in assay [3] (Homo sapiens, 96 h), 101 nM; against EGFR1 (HER-1), 19 nM; in assay [4] (Homo sapiens, A-431, 72 h) it was 15 nM.
In the case of `C=CC(=O)Nc1cc2c(Nc3ccc(Br)c(Cl)c3F)ncnc2cc1OCCNC(=O)COC` [Example 146, N-{4-(4-bromo-3-chloro-2-fluoro-phenylamino)-7-[2-(2-methoxy-acetylamino)-ethoxy]-quinazolin-6-yl}-acrylamide], the 50% inhibitory concentration (IC50) at VEGFR2 (KDR) came out at 257 nM; in assay [1] (Homo sapiens, 72 h), 2790 nM; in assay [2] (Homo sapiens, SK-BR-3, 72 h) it was 97 nM; in assay [3] (Homo sapiens, 96 h), 365 nM; at EGFR1 (HER-1), 213 nM; in assay [4] (Homo sapiens, A-431, 72 h), 203 nM.
As to `C=CC(=O)Nc1cc2c(Nc3cc(Cl)c(Cl)cc3F)ncnc2cc1OCCNC(=O)COC` [Example 138, N-{4-(4,5-dichloro-2-fluoro-phenylamino)-7-[2-(2-methoxy-acetylamino)-ethoxy]-quinazolin-6-yl}-acrylamide], the IC50 against VEGFR2 (KDR) turned out to be 823 nM; in assay [1] (Homo sapiens, 72 h), 721 nM; in assay [2] (Homo sapiens, SK-BR-3, 72 h), 39 nM; in assay [3] (Homo sapiens, 96 h), 845 nM; at EGFR1 (HER-1), 20 nM; in assay [4] (Homo sapiens, A-431, 72 h) it was 21 nM.
